The results in this text go back to article PMC2195641 (The Journal of Experimental Medicine, 1999).

Where a SMILES comes first, the peptide text is derived from it.

The experiment deals with T1, purified I-E^k molecules (Mus musculus, UniProt P04224+P04231).
T1 sequence (P04224 26-255): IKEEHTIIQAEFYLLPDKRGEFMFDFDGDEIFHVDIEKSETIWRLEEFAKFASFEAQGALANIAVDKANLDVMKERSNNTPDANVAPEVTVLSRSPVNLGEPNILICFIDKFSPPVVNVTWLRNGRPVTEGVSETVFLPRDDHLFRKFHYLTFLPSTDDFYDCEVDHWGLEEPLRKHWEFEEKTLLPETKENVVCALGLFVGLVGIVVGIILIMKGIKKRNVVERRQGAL
T1 sequence (P04231 1-232): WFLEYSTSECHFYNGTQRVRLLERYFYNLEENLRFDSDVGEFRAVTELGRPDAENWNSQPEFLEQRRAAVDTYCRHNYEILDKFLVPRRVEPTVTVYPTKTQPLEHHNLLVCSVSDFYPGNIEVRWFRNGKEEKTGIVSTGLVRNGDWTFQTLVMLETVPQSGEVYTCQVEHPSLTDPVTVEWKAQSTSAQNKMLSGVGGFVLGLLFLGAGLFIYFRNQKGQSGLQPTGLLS
The experiment is described as follows: I-E^k binding assay.

For `CC[C@H](C)[C@H](NC(=O)[C@H](C)NC(=O)[C@H](C)NC(=O)[C@H](C)NC(=O)[C@H](C)NC(=O)[C@H](C)NC(=O)[C@H](C)NC(=O)[C@H](C)N)C(=O)N[C@@H](C)C(=O)N[C@@H](Cc1ccc(O)cc1)C(=O)N[C@@H](C)C(=O)N[C@@H](CCCCN)C(=O)N[C@@H](CCC(N)=O)C(=O)N[C@@H](C)C(=O)N[C@H](C(=O)N[C@@H](CCCCN)C(=O)O)[C@@H](C)O` [pMCC-A] (H-AAAAAAAIAYAKQATK-OH), the IC50 – broadly, the midpoint of a concentration-inhibition curve – was 36 nM.
